ChEMBL document CHEMBL4354832, “Discovery of a Covalent Inhibitor of KRASG12C (AMG 510) for the Treatment of Solid Tumors” (J Med Chem, 2020)
In brackets after ≈: the same amount, converted by molar mass. Several values for one entry are separate records, joined by “and”; a condition that tells them apart may be missing. Identical values can stand only once.

What was measured:
GTPase KRas [1] = molecular target: GTPase KRas (Homo sapiens, UniProt P01116); test: Inhibition of KRAS in human MIAPaca2 cells assessed as decrease in EGF-stimulated ERK1/2 phosphorylation preincubated for 2 hrs followed by EGF stimulation; assay type: cell-based
GTPase KRas [2] = molecular target: GTPase KRas (Homo sapiens, UniProt P01116, C118A/G12C); test: Inhibition of GDP bound recombinant human His-tagged KRAS G12C/C118A mutant (1 to 169 residues) assessed as reduction in SOS1-mediated GDP/GTP nucleotide exchange by measuring the disruption between GDP-bound recombinant His-tagged KRAS G12C/C118A (1 to 169 residues) and Ras binding domain of GST-tagged c-RAF (1 to 149 residues) preincubated for 5 mins followed by SOS1 and GTP addition and further incubated for 30 mins by AlphaLISA assay
[3] = Permeability of compound across apical to basolateral membrane in MDCK2 cells at 10 to 50 uM incubated for 2 hrs under shaking condition by LC-MS/MS analysis; assay type: ADME, cell-based, Canis lupus familiaris, MDCK-II; conditions: dog, MDCK; read-out: permeability
[4] = Intrinsic clearance in mouse cryopreserved hepatocytes assessed per 10^6 cells at 0.5 uM measured upto 60 mins by LCMS analysis; assay type: ADME, cell-based, Hepatocyte; conditions: read-out: CLH
A549 = test: Antiproliferative activity against human A549 cells harboring KRAS G12S point mutant assessed as cell growth inhibition after 72 hrs by Celltiter-Glo luminescent cell viability assay; assay type: functional, cell-based; conditions: A549, 72 h
MIA PaCa-2 = test: Antiproliferative activity against human MIAPaCa2 cells harboring KRAS G12C point mutant assessed as cell growth inhibition after 72 hrs by Celltiter-Glo luminescent cell viability assay; assay type: functional, cell-based; conditions: MIA PaCa-2, 72 h
[5] = Half life in BALB/c mouse at 1 mg/kg, iv or 10 mg/kg, po; assay type: ADME, organism-based; conditions: in vivo
[6] = Volume of distribution at steady state in BALB/c mouse at 1 mg/kg, iv or 10 mg/kg, po; assay type: ADME, organism-based; conditions: in vivo, read-out: Vdss
[7] = Clearance in BALB/c mouse at 1 mg/kg, iv or 10 mg/kg, po; assay type: ADME, organism-based; conditions: in vivo
[8] = Intrinsic clearance in human cryopreserved hepatocytes assessed per 10^6 cells at 0.5 uM measured upto 60 mins by LCMS analysis; assay type: ADME, cell-based, Hepatocyte; conditions: read-out: CLH
[9] = Oral bioavailability in BALB/c mouse at 10 mg/kg; assay type: ADME, organism-based; conditions: in vivo
[10] = Solubility of compound in PBS buffer at pH 7.4 incubated for 48 to 72 hrs under shaking conditions by LCMS analysis; assay type: physicochemical
[11] = Solubility of compound in FaSSIF incubated for 48 to 72 hrs under shaking conditions by LCMS analysis; assay type: physicochemical
[12] = Solubility of compound in 0.01N HCl at pH 2 incubated for 48 to 72 hrs under shaking conditions by LCMS analysis; assay type: physicochemical

| Compound | IC50 (GTPase KRas [1]) | IC50 (GTPase KRas [2]) [nM] | Papp A→B at 2 h, up to 50 µM [3] [×10⁻⁶ cm/s] | hepatocyte CLint at 0.5 µM [4] [µL/min/1e6 cells] | IC50 (A549) [nM] | IC50 (MIA PaCa-2) [nM] | half-life [5] [min] | Vd [6] [L/kg] | clearance [7] [mL/min/kg] | hepatocyte CLint at 0.5 µM [8] [µL/min/1e6 cells] | bioavailability [9] [%] | solubility thermodynamic [10] [µM] | solubility thermodynamic [11] [µM] | solubility thermodynamic [12] [µM] |
| --- | --- | --- | --- | --- | --- | --- | --- | --- | --- | --- | --- | --- | --- | --- |
| C=CC(=O)N1CCN(c2nc(=O)n(-c3ncccc3C(C)C)c3nc(-c4c(O)cccc4F)c(Cl)cc23)[C@@H](C)C1 | 53 nM | – | – | – | – | – | – | – | – | – | – | – | – | – |
| C=CC(=O)N1CCN(c2ncnc3c(F)c(-c4c(O)cccc4F)c(Cl)cc23)CC1 | 831 nM | 939 | – | – | – | – | – | – | – | – | – | – | – | – |
| C=CC(=O)N1CCN(c2nc(=O)n(-c3c(C(C)C)ccnc3C)c3nc(-c4c(O)cccc4F)c(F)cc23)[C@@H](C)C1 | – | – | 1 | 100 | 49100 | 16 | 18 | 1.1 | 61.7 | 9 | 15 | 426 (≈ 239 µg/mL) | 477 (≈ 267 µg/mL) | 484 (≈ 271 µg/mL) |
| C=CC(=O)N1CCN(c2nnc(-c3ccccc3)c3cc(-c4c(O)cccc4F)c(Cl)cc23)CC1 | 58000 nM | 20100 | – | – | – | – | – | – | – | – | – | – | – | – |
| C=CC(=O)N1CCN(c2nc(=O)n(-c3c(C(C)C)ccnc3C)c3nc(-c4c(O)cccc4F)c(Cl)cc23)[C@@H](C)C1 | – | – | 2 | 96 | 32400 | 3 | 24 | 1.4 | 23.3 | 5 | < 0.5 | 335 (≈ 193 µg/mL) | 435 (≈ 251 µg/mL) | 534 (≈ 308 µg/mL) |
| C=CC(=O)N1CCN(c2nc(=O)n(-c3c(C)ncnc3C(C)C)c3nc(-c4c(O)cccc4F)c(Cl)cc23)[C@@H](C)C1 | – | – | 1 | 139 | > 50000 | 3 | 18 | 0.4 | 58.3 | 5 | < 0.5 | 499 (≈ 288 µg/mL) | 500 (≈ 289 µg/mL) | 421 (≈ 243 µg/mL) |
| C=CC(=O)N1CCN(c2nc(=O)n(-c3c(C)ncnc3C(C)C)c3nc(-c4c(O)cccc4F)c(F)cc23)[C@@H](C)C1 | – | – | < 1 | 65 | > 50000 | 9 | 18 | 1.7 | 78.3 | 5 | 10 | 495 (≈ 278 µg/mL) | 500 (≈ 281 µg/mL) | 500 (≈ 281 µg/mL) |
| C=CC(=O)N1CCN(c2nc(=O)n(-c3ccccc3C(C)C)c3nc(-c4ccccc4Cl)c(Cl)cc23)[C@@H](C)C1 | – | – | 12 | 319 | 7100 | 16 | 36 | 4.8 | 90 | 205 | 12 | – | 175 (≈ 98.4 µg/mL) | – |
| C=CC(=O)N1CCN(c2nc(=O)n(-c3ccccc3C(C)C)c3cc(-c4c(O)cccc4F)c(Cl)cc23)[C@@H](C)C1 | 28 nM | – | 1 | 263 | 15300 | 14 | – | – | – | 113 | – | – | 226 (≈ 127 µg/mL) | – |
| C=CC(=O)N1CCN(c2nnc(-c3ccccc3OC)c3cc(-c4c(O)cccc4F)c(Cl)cc23)CC1 | 8050 nM | 9150 | – | – | – | – | – | – | – | – | – | – | – | – |
| C=CC(=O)N1CCN(c2nc(=O)n(-c3ccccc3C(C)C)c3cc(-c4c(C)ccc5[nH]ncc45)c(Cl)cc23)CC1 | 8 nM | – | 4 | 180 | 1700 | 4 | 168 | 5.3 | 70 | 121 | < 0.5 | – | 218 (≈ 124 µg/mL) | – |
| C=CC(=O)N1CCN(c2nnc(-c3ccccc3C)c3cc(-c4c(O)cccc4F)c(Cl)cc23)CC1 | 3330 nM | 5710 | – | – | – | – | – | – | – | – | – | – | – | – |
| C=CC(=O)N1CCN(c2nc(=O)n(-c3ccccc3C(C)C)c3nc(-c4ccccc4F)c(Cl)cc23)[C@@H](C)C1 | – | – | 20 | 236 | 7900 | 5 | 36 | 2.3 | 60 | 135 | 9 | 11 (≈ 6.01 µg/mL) | 224 (≈ 122 µg/mL) | – |
| C=CC(=O)N1CCN(c2nc(=O)n(-c3c(C)cccc3C)c3nc(-c4c(O)cccc4F)c(Cl)cc23)[C@@H](C)C1 | 199 nM | – | – | – | – | – | – | – | – | – | – | – | – | – |
| C=CC(=O)N1CCN(c2nnc(-c3ccccc3Cl)c3cc(-c4c(O)cccc4F)c(Cl)cc23)CC1 | 3530 nM | 3520 | – | – | – | – | – | – | – | – | – | – | – | – |
| C=CC(=O)N1CCN(c2nc(=O)n(-c3ccccc3C(C)C)c3cc(-c4ccccc4C(F)(F)F)c(Cl)cc23)[C@@H](C)C1 | – | – | 3 | 270 | 7400 | 40 | – | – | – | 148 | – | – | 218 (≈ 130 µg/mL) | – |
| C=CC(=O)N1CCN(c2nnc(-c3ccccc3C3CC3)c3cc(-c4c(O)cccc4F)c(Cl)cc23)CC1 | 7150 nM | 1550 | – | – | – | – | – | – | – | – | – | – | – | – |
| C=CC(=O)N1CCN(c2nc(=O)n(-c3ccccc3C(C)C)c3cc(-c4ccccc4Cl)c(Cl)cc23)[C@@H](C)C1 | 220 nM | – | 6 | 397 | 7400 | 18 | – | – | – | 317 | – | – | 255 (≈ 143 µg/mL) | – |
| C=CC(=O)N1CCN(c2nc(=O)n(-c3ccccc3C(C)(C)C)c3nc(-c4c(O)cccc4F)c(Cl)cc23)[C@@H](C)C1 | 51 nM | – | – | – | – | – | – | – | – | – | – | – | – | – |
| C=CC(=O)N1CCN(c2nc(=O)n(-c3ccccc3C(C)C)c3cc(-c4c(O)cccc4F)c(Cl)cc23)CC1 | 335 nM and 130 nM | 101 | 2 | 195 | 10300 | 33 | 204 | 0.8 | 5 | 56 | < 0.5 | – | 191 (≈ 104 µg/mL) | – |
| C=CC(=O)N1CCN(c2nc(=O)n(-c3ccccc3C(C)C)c3nc(-c4c(O)cccc4F)c(Cl)cc23)CC1 | – | – | 6 | 109 | 11500 | 11 | 90 | 0.5 | 13.3 | 32 | 1.3 | 14 (≈ 7.67 µg/mL) | 204 (≈ 112 µg/mL) | 14 (≈ 7.67 µg/mL) |
| C=CC(=O)N1CCN(c2nc(=O)n(-c3ccnn3C(C)C)c3nc(-c4c(O)cccc4F)c(Cl)cc23)[C@@H](C)C1 | 218 nM | – | – | – | – | – | – | – | – | – | – | – | – | – |
| C=CC(=O)N1CCN(c2nc(=O)n(-c3c(C)ccnc3C(C)C)c3nc(-c4c(O)cccc4F)c(Cl)cc23)[C@@H](C)C1 | – | – | 1 | 75 | 34100 | 1 | 24 | 0.8 | 65 | 11 | < 0.5 | 46 (≈ 26.5 µg/mL) | 381 (≈ 220 µg/mL) | 500 (≈ 289 µg/mL) |
| C=CC(=O)N1CCN(c2nnc(-c3ccccc3CC)c3cc(-c4c(O)cccc4F)c(Cl)cc23)CC1 | 2580 nM | 903 | – | – | – | – | – | – | – | – | – | – | – | – |
| C=CC(=O)N1CCN(c2nc(=O)n(-c3ccccc3C3CC3)c3nc(-c4c(O)cccc4F)c(Cl)cc23)[C@@H](C)C1 | 109 nM | 225 | – | – | – | – | – | – | – | – | – | – | – | – |
| C=CC(=O)N1CCN(c2nc(=O)n(-c3ccccc3C(C)C)c3cc(-c4cc(O)cc5ccccc45)c(Cl)cc23)CC1 | – | – | – | – | 2700 | 17 | – | – | – | – | – | – | 71 (≈ 41.1 µg/mL) | – |
| C=CC(=O)N1CCN(c2nnc(-c3ccccc3C(C)C)c3cc(-c4c(O)cccc4F)c(Cl)cc23)CC1 | 1800 nM | 683 | – | – | – | – | – | – | – | – | – | – | – | – |
| C=CC(=O)N1CCN(c2nc(=O)n(-c3ccccc3C(C)C)c3cc(-c4ccccc4F)c(Cl)cc23)[C@@H](C)C1 | – | – | 10 | 356 | 5800 | 6 | 54 | 1.4 | 26.7 | 166 | 12 | – | 260 (≈ 142 µg/mL) | – |
| C=CC(=O)N1CCN(c2nc(=O)n(-c3c(C)cccc3C(C)C)c3nc(-c4c(O)cccc4F)c(F)cc23)[C@@H](C)C1 | – | – | 22 | 111 | 11600 | 11 | 30 | 1.1 | 33.3 | 37 | < 0.5 | 41 (≈ 22.9 µg/mL) | 164 (≈ 91.8 µg/mL) | 24 (≈ 13.4 µg/mL) |
| C=CC(=O)N1CCN(c2nc(=O)n(-c3ccccc3C(C)C)c3cc(-c4ccccc4F)c(Cl)cc23)CC1 | – | – | 7 | 415 | 6400 | 22 | – | – | – | 197 | – | – | 344 (≈ 183 µg/mL) | – |
